Data reported in ChEMBL document CHEMBL1201861, “Genomics of Drug Sensitity in Cancer screening data, Wellcome Trust Sanger Institute”.

Experiments:
Assay in all cases: cells
Type in all cases: functional, cell-based, Homo sapiens
KYSE-450 = tested on: KYSE-450;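 also: cell growth inhibition measured by a viability assay in human KYSE-450 cells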
Description: SANGER: Inhibition of human KYSE-450 cell growth in a cell viability assay.

Kasumi 1 = tested on: Kasumi 1;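 also: growth inhibition of human Kasumi-1 cells, read out by a cell viability assay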
Description: SANGER: Inhibition of human KASUMI-1 cell growth in a cell viability assay.

NCI-H1755 = tested on: NCI-H1755;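 also: cell viability readout used to measure growth inhibition of NCI-H1755 cells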
Description: SANGER: Inhibition of human NCI-H1755 cell growth in a cell viability assay.

COLO-792 = tested on: COLO-792
Description: SANGER: Inhibition of human COLO-792 cell growth in a cell viability assay.

MDA-MB-453 = tested on: MDA-MB-453
Description: SANGER: Inhibition of human MDA-MB-453 cell growth in a cell viability assay.

A-431 = tested on: A-431;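 also: growth inhibition of A-431 cells, determined with a cell viability read-out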
Description: SANGER: Inhibition of human A431 cell growth in a cell viability assay.

MDA-MB-415 = tested on: MDA-MB-415
DoTc2-4510 = tested on: DoTc2-4510
DK-MG = tested on: DK-MG;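 also: growth inhibition of DK-MG cells, read out with a cell viability assay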
Description: SANGER: Inhibition of human DK-MG cell growth in a cell viability assay.

NCI-H520 = tested on: NCI-H520;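 also: growth inhibition of NCI-H520 cells, measured by a cell viability assay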
Description: SANGER: Inhibition of human NCI-H520 cell growth in a cell viability assay.

MFE-280 = tested on: MFE-280;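 also: growth inhibition of MFE-280 cells, determined with a cell viability readout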
Description: SANGER: Inhibition of human MFE-280 cell growth in a cell viability assay.

MDA-MB-231 = tested on: MDA-MB-231
Description: SANGER: Inhibition of human MDA-MB-231 cell growth in a cell viability assay.

NCI-H2170 = tested on: NCI-H2170;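 also: cell viability assay measuring growth inhibition of human NCI-H2170 cancer cells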
Description: SANGER: Inhibition of human NCI-H2170 cell growth in a cell viability assay.

HEC-1 = tested on: HEC-1;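 also: growth inhibition of the cell line, read out with a cell viability assay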
Description: SANGER: Inhibition of human HEC-1 cell growth in a cell viability assay.

NCI-H661 = tested on: NCI-H661;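 also: cell viability assay read-out, IC50 being the concentration that inhibits growth of the cells by half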
Description: SANGER: Inhibition of human NCI-H661 cell growth in a cell viability assay.

LCLC-97TM1 = tested on: LCLC-97TM1;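 also: cell viability assay measuring growth inhibition of human LCLC-97TM1 cells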
Description: SANGER: Inhibition of human LCLC-97TM1 cell growth in a cell viability assay.

G-361 = tested on: G-361
NCI-H358 = tested on: NCI-H358;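 also: growth inhibition of NCI-H358 human cells, read out with a cell viability assay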
Description: SANGER: Inhibition of human NCI-H358 cell growth in a cell viability assay.

CAMA-1 = tested on: CAMA-1;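 also: growth inhibition of CAMA-1 cells, read out with a cell viability assay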
Description: SANGER: Inhibition of human CAMA-1 cell growth in a cell viability assay.

EFO-27 = tested on: EFO-27;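 also: growth inhibition of EFO-27 cells, read out with a cell viability assay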
Description: SANGER: Inhibition of human EFO-27 cell growth in a cell viability assay.

SCC-4 = tested on: SCC-4;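 also: growth inhibition of human SCC-4 cells, read out as cell viability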
Description: SANGER: Inhibition of human SCC-4 cell growth in a cell viability assay.

YAPC = tested on: YAPC;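 also: growth inhibition of YAPC cells, measured with a cell viability assay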
Description: SANGER: Inhibition of human YAPC cell growth in a cell viability assay.

FaDu = tested on: FaDu;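 also: cell viability readout of growth inhibition in FaDu cells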
Description: SANGER: Inhibition of human FADU cell growth in a cell viability assay.

CAL-27 = tested on: CAL-27;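 also: Viability-based readout, IC50 reflecting inhibition of CAL-27 cell growth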
Description: SANGER: Inhibition of human CAL-27 cell growth in a cell viability assay.

COLO-680N = tested on: COLO-680N;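 also: cell viability assay used to measure inhibition of COLO-680N cell growth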
Description: SANGER: Inhibition of human COLO-680N cell growth in a cell viability assay.

HCC70 = tested on: HCC70;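 also: cell viability assay measuring how strongly the compound suppresses proliferation of HCC70 cells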
Description: SANGER: Inhibition of human HCC70 cell growth in a cell viability assay.

CHL-1 = tested on: CHL-1;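 also: cell growth inhibition, read out with a cell viability assay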
Description: SANGER: Inhibition of human CHL-1 cell growth in a cell viability assay.

HCC38 = tested on: HCC38;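 also: cell viability assay on the human HCC38 cell line, with IC50 marking the concentration that inhibits cell growth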
Description: SANGER: Inhibition of human HCC38 cell growth in a cell viability assay.

OVCAR-3 = tested on: OVCAR-3;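 also: growth inhibition of human OVCAR-3 cells, determined by a cell viability assay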
Description: SANGER: Inhibition of human OVCAR-3 cell growth in a cell viability assay.

HOS = tested on: HOS;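 also: growth inhibition of human HOS cells, read out with a cell viability assay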
Description: SANGER: Inhibition of human HOS cell growth in a cell viability assay.

DU-145 = tested on: DU-145
Description: SANGER: Inhibition of human DU-145 cell growth in a cell viability assay.

RO82-W-1 = tested on: RO82-W-1;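 also: growth inhibition of human RO82-W-1 cells, measured with a cell viability assay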
Description: SANGER: Inhibition of human RO82-W-1 cell growth in a cell viability assay.

P12-Ichikawa = tested on: P12-Ichikawa
DMS-273 = tested on: DMS-273
Description: SANGER: Inhibition of human DMS-273 cell growth in a cell viability assay.

G-402 = tested on: G-402
Description: SANGER: Inhibition of human G-402 cell growth in a cell viability assay.

NCI-H2291 = tested on: NCI-H2291
Description: SANGER: Inhibition of human NCI-H2291 cell growth in a cell viability assay.

NCI-H596 = tested on: NCI-H596;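 also: growth inhibition of NCI-H596 cells, read out with a cell viability assay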
Description: SANGER: Inhibition of human NCI-H596 cell growth in a cell viability assay.

How did the IC50 (KYSE-450; Homo sapiens, KYSE-450) turn out when CO[C@H]1C[C@@H]2CC[C@@H](C)[C@@](O)(O2)C(=O)C(=O)N2CCCC[C@H]2C(=O)O[C@H]([C@H](C)C[C@@H]2CC[C@@H](OC(=O)C(C)(CO)CO)[C@H](OC)C2)CC(=O)[C@H](C)/C=C(\C)[C@@H](O)[C@@H](OC)C(=O)[C@H](C)C[C@H](C)/C=C/C=C/C=C/1C [TEMSIROLIMUS] was run?
The IC50 was > 0.2 µM.

And the IC50 (Kasumi 1; Homo sapiens, Kasumi 1)?
Its IC50 is 0.0562 µM.

What about the IC50 (NCI-H1755; Homo sapiens, NCI-H1755) of the same compound?
Its IC50 is > 0.2 µM.

What about the IC50 (COLO-792; Homo sapiens, COLO-792) of the same compound?
The IC50 was > 0.2 µM.

And the IC50 (MDA-MB-453; Homo sapiens, MDA-MB-453)?
Its IC50 is > 0.2 µM.

What about the IC50 (A-431; Homo sapiens, A-431) of the same compound?
The IC50 was > 0.2 µM.

What about the IC50 (MDA-MB-415; Homo sapiens, MDA-MB-415) of the same compound?
The IC50 was 0.036 µM.

And the IC50 (DoTc2-4510; Homo sapiens, DoTc2-4510)?
The IC50 was > 0.2 µM.

And the IC50 (DK-MG; Homo sapiens, DK-MG)?
Its IC50 is > 0.2 µM.

What about the IC50 (NCI-H520; Homo sapiens, NCI-H520) of the same compound?
Its IC50 is > 0.2 µM.

And the IC50 (MFE-280; Homo sapiens, MFE-280)?
The IC50 was > 0.2 µM.

What about the IC50 (MDA-MB-231; Homo sapiens, MDA-MB-231) of the same compound?
The IC50 was > 0.2 µM.

What about the IC50 (NCI-H2170; Homo sapiens, NCI-H2170) of the same compound?
Its IC50 is > 0.2 µM.

What about the IC50 (HEC-1; Homo sapiens, HEC-1) of the same compound?
The IC50 was > 0.2 µM.

And the IC50 (NCI-H661; Homo sapiens, NCI-H661)?
The IC50 was 0.117 µM.

And the IC50 (LCLC-97TM1; Homo sapiens, LCLC-97TM1)?
The IC50 was > 0.2 µM.

What about the IC50 (G-361; Homo sapiens, G-361) of the same compound?
Its IC50 is 0.146 µM.

What about the IC50 (NCI-H358; Homo sapiens, NCI-H358) of the same compound?
The IC50 was 0.131 µM.

And the IC50 (CAMA-1; Homo sapiens, CAMA-1)?
Its IC50 is 0.00477 µM.

And the IC50 (EFO-27; Homo sapiens, EFO-27)?
The IC50 was 0.0331 µM.

What about the IC50 (SCC-4; Homo sapiens, SCC-4) of the same compound?
The IC50 was > 0.2 µM.

What about the IC50 (YAPC; Homo sapiens, YAPC) of the same compound?
Its IC50 is > 0.2 µM.

And the IC50 (FaDu; Homo sapiens, FaDu)?
Its IC50 is > 0.2 µM.

What about the IC50 (CAL-27; Homo sapiens, CAL-27) of the same compound?
The IC50 was > 0.2 µM.

And the IC50 (COLO-680N; Homo sapiens, COLO-680N)?
Its IC50 is > 0.2 µM.

And the IC50 (HCC70; Homo sapiens, HCC70)?
Its IC50 is 0.158 µM.

What about the IC50 (CHL-1; Homo sapiens, CHL-1) of the same compound?
Its IC50 is 0.00586 µM.

And the IC50 (HCC38; Homo sapiens, HCC38)?
The IC50 was > 0.2 µM.

And the IC50 (OVCAR-3; Homo sapiens, OVCAR-3)?
The IC50 was > 0.2 µM.

And the IC50 (HOS; Homo sapiens, HOS)?
Its IC50 is 0.145 µM.

What about the IC50 (DU-145; Homo sapiens, DU-145) of the same compound?
The IC50 was > 0.2 µM.

What about the IC50 (RO82-W-1; Homo sapiens, RO82-W-1) of the same compound?
The IC50 was > 0.2 µM.

What about the IC50 (P12-Ichikawa; Homo sapiens, P12-Ichikawa) of the same compound?
Its IC50 is 0.013 µM.

And the IC50 (DMS-273; Homo sapiens, DMS-273)?
The IC50 was > 0.2 µM.

What about the IC50 (G-402; Homo sapiens, G-402) of the same compound?
Its IC50 is > 0.2 µM.

And the IC50 (NCI-H2291; Homo sapiens, NCI-H2291)?
The IC50 was > 0.2 µM.

And the IC50 (NCI-H596; Homo sapiens, NCI-H596)?
Its IC50 is > 0.2 µM.

With CISPLATIN as the compound, how does the IC50 (KYSE-450; kyse-450) read?
The IC50 was 72.8 µM.

And the IC50 (Kasumi 1; kasumi 1)?
Its IC50 is 62.1 µM.

What about the IC50 (NCI-H1755; nci-h1755) of the same compound?
The IC50 was 207 µM.

And the IC50 (COLO-792; colo-792)?
The IC50 was 5.73 µM.

What about the IC50 (MDA-MB-453; mda-mb-453) of the same compound?
Its IC50 is 25.8 µM.

And the IC50 (A-431; a-431)?
The IC50 was 572 µM.

What about the IC50 (MDA-MB-415; mda-mb-415) of the same compound?
The IC50 was 48.4 µM.

What about the IC50 (DoTc2-4510; dotc2-4510) of the same compound?
The IC50 was 63.6 µM.

And the IC50 (DK-MG; dk-mg)?
The IC50 was 137 µM.

What about the IC50 (NCI-H520; nci-h520) of the same compound?
The IC50 was 72.8 µM.

What about the IC50 (MFE-280; mfe-280) of the same compound?
The IC50 was 626 µM.

What about the IC50 (MDA-MB-231; mda-mb-231) of the same compound?
The IC50 was 264 µM.

And the IC50 (NCI-H2170; nci-h2170)?
The IC50 was 23 µM.

And the IC50 (HEC-1; hec-1)?
Its IC50 is 13.3 µM.

And the IC50 (NCI-H661; nci-h661)?
Its IC50 is 13.6 µM.

And the IC50 (LCLC-97TM1; lclc-97tm1)?
Its IC50 is 19.8 µM.

And the IC50 (G-361; g-361)?
The IC50 was 672 µM.

What about the IC50 (NCI-H358; nci-h358) of the same compound?
Its IC50 is 195 µM.

What about the IC50 (CAMA-1; cama-1) of the same compound?
The IC50 was 117 µM.

What about the IC50 (EFO-27; efo-27) of the same compound?
Its IC50 is 13.2 µM.

What about the IC50 (SCC-4; scc-4) of the same compound?
The IC50 was 31 µM.

And the IC50 (YAPC; yapc)?
Its IC50 is 1160 µM.

And the IC50 (FaDu; fadu)?
Its IC50 is 8.92 µM.

What about the IC50 (CAL-27; cal-27) of the same compound?
Its IC50 is 6.69 µM.

What about the IC50 (COLO-680N; colo-680n) of the same compound?
Its IC50 is 23.6 µM.

What about the IC50 (HCC70; hcc70) of the same compound?
Its IC50 is 9.92 µM.

And the IC50 (CHL-1; chl-1)?
Its IC50 is 99.2 µM.

And the IC50 (HCC38; hcc38)?
The IC50 was 160 µM.

What about the IC50 (OVCAR-3; ovcar-3) of the same compound?
The IC50 was 696 µM.

And the IC50 (HOS; hos)?
Its IC50 is 2.56 µM.

And the IC50 (DU-145; du-145)?
Its IC50 is 11.1 µM.

What about the IC50 (RO82-W-1; ro82-w-1) of the same compound?
The IC50 was 72.1 µM.

What about the IC50 (P12-Ichikawa; p12-ichikawa) of the same compound?
The IC50 was 2.04 µM.

What about the IC50 (DMS-273; dms-273) of the same compound?
The IC50 was 9.7 µM.

What about the IC50 (G-402; g-402) of the same compound?
Its IC50 is 7.11 µM.

And the IC50 (NCI-H2291; nci-h2291)?
Its IC50 is 458 µM.

What about the IC50 (NCI-H596; nci-h596) of the same compound?
Its IC50 is 305 µM.
